These results are taken from patent publication US20230329284A1, “BEE ANTIVIRAL COMPOSITIONS” (priority 2022, published 2023).

In one assay the test system is deformed wing virus. The assay can be described thus: Screen of plant compounds for effect on bee viral loads in live bees. It counts as in vivo, honey bee. Conditions: for deformed wing virus levels (viral loads), dose response: FIG. 6; for antiviral activity in live bee trials: live bees exposed to natural products derived from plants. The method, then:
A total of 140 compounds were screened for their effect on bee viral loads.
All compounds are selected from food-safe (GRAS, generally recognized as safe by the US FDA) libraries and were tested in live bees to assess adverse impacts to bee health. Trials were carried out using live bees exposed to natural products derived from plants. […] Thymol and octanoic acid blends are being tested to assess possible synergies prior to field trials.

The subject of another assay is VDV. The assay can be described thus: Methyl jasmonate feeding of naturally VDV-infected adult honey bees, VDV load per bee by qPCR (ΔCq). It counts as in vivo. Conditions: for decrease in VDV titers compared to control bees (sugar alone) / mean change in quantification cycle value of VDV per bee (ΔCq) / decrease in VDV titers compared to control bees / mean ΔCq of VDV per bee: FIG. 1; for decrease in VDV titers compared to control bees (sugar alone) / mean change in quantification cycle value of VDV per bee (ΔCq): day 7; for mean change in quantification cycle value of VDV per bee (ΔCq): control 3.9 (+/-3.5); for decrease in VDV titers compared to control bees / mean ΔCq of VDV per bee: day 12; for mean ΔCq of VDV per bee: control 7.8 ( +/- 2.8). The method, then: The effect on viral load of methyl jasmonate (MeJA) treatment on virally-infected bees was tested after 7 days and after 12 days of feeding sugar or sugar + MeJA.
Adult honey bees were reared in cages and fed either sucrose solution, 100 ppm MeJA dissolved in sucrose solution, or 500 ppm of MeJA dissolved in sucrose solution. Bees’ genetic material was individually examined by qPCR for normalized VDV loads at 7 days and 12 days after the start of MeJA treatment. Standard box plots include a dotted line that represents the mean, and each point represents an individual bee from one of various cages per treatment. VDV was not administered artificially and is from a natural infection. Levels of DWV-A, a recombinant variant of VDV, were too low in the specimen for quantification. A higher Δ Cq indicates […] VDV present in the specimen. For Day 7,
A second efficiency test was performed where VDV-infected adult bees were fed 100 ppm of MeJA dissolved in sucrose solution. As a control, only sucrose solution was administered.

The subject of assay [1] is Deformed wing virus (DWV). The assay can be described thus: Fluorescent determination of bee viral titers with nano-luciferase-expressing DWV construct. Conditions: for Average Fluorescence, Average Counts: single treatment with 10^5 copies DWV, average of nine bees, DWV alone 111.366, PBS 1.687; for viral load of DWV-infected bees compared with DWV control: low, medium, or high doses. It counts as in vivo, bees. The method, then: A fluorescent assay was performed to determine the effects of different treatments on bee viral load.
Bees were treated once with different doses of methyl jasmonate while simultaneously receiving an effective does (10^5 copies) of Deformed wing virus (DWV). The methyl jasmonte was at low dose (MJL), medium dose (MJM), or high dose (MJH). Additional bees were treated with thymol solution in low dose (TL), medium dose (TM), and high dose (TH). The infective virus dose comprised a viral construct that expressed nano-luciferase, allowing direct quantification of viral loads via spectrophotometer. As a negative control, phosphate buffered saline (PBS) solution was used alone. As a positive control, bees were infected with 10^5 DWV alone. Measurements were repeated nine times in nine different bees, and an average calculated.

The structures appear in SMILES notation.

For `CC/C=C\CC1C(=O)CCC1CC(=O)OC` (stereo not shown) [MeJA, Methyl jasmonate], the “deformed wing virus levels (viral loads), dose response” value (“deformed wing virus levels” below) in the assay with deformed wing virus (higher levels, 1 mM or 10 mM) was “dose response in viral loads”. Moreover, the “antiviral activity in live bee trials” value in the assay with deformed wing virus is “antiviral activity”. For the same molecule, the “decrease in VDV titers compared to control bees (sugar alone)” value is recorded as 11.5% in the assay on VDV (sugar + 100 ppm MeJA) and 97.8% in the assay on VDV (sugar + 500 ppm MeJA). Further, the “mean change in quantification cycle value of VDV per bee (ΔCq)” value is given as 3.45 (+/- 4.8) with VDV (sugar + 100 ppm MeJA, higher ΔCq = more VDV) and 0.085 (+/- 6.16) in the assay on VDV (sugar + 500 ppm MeJA). The results for the “decrease in VDV titers compared to control bees” value with VDV (sugar + 100 ppm MeJA) and with VDV (sugar + 500 ppm MeJA) were 33.3% and 52.6%, respectively. Also, the “mean ΔCq of VDV per bee” value is reported as 5.2 ( +/- 4.9) in the assay on VDV (sugar + 100 ppm MeJA) and 3.7 ( +/- 5.3) with VDV (sugar + 500 ppm MeJA). In addition, the “decrease in VDV titers compared to bees fed sugar alone (using the mean)” value came out at 7.1% in the assay on VDV (FIG. 3, Day 7, sugar + 500 ppm MeJA) and 21.9% in the assay on VDV (second efficiency test, FIG. 2, Day 7, sugar + 100 ppm MeJA). Also, the “median Cq” value with VDV (FIG. 3, Day 7, sugar + 500 ppm MeJA, control 7.1) is reported as 6.1. Moreover, in the assay on VDV (FIG. 3, Day 7, sugar + 500 ppm MeJA, spread 2.1, control 7.0), the “mean Cq” value worked out at 6.5. The “median ΔCq” value in the assay on VDV (second efficiency test, FIG. 2, Day 7, sugar + 100 ppm MeJA, control 4.17) was found to be 1.33. For the same molecule, in the assay on VDV (second efficiency test, FIG. 2, Day 7, sugar + 100 ppm MeJA, std dev. 3.8, control 3.2), the “mean ΔCq” value came to 2.5. In addition, the “viral levels compared with bees fed sugar alone” value in the assay on VDV (treated for 12 days with sugar + MeJA) is “significantly lower viral levels”. The “Average Fluorescence, Average Counts” value in assay [1] (high dose) came out at 68.246; in assay [1] (low dose), 76.120; in assay [1] (medium dose) it was 83.905. Further, the “viral load of DWV-infected bees compared with DWV control” value in assay [1] is given as “lower viral load”.

Consider `CCCCCCCC(=O)O` [octanoic acid], for which the “deformed wing virus levels” value with deformed wing virus (higher levels, 10 mM and 100 mM) is “dose response in viral loads”. In addition, the “antiviral activity in live bee trials” value in the assay with deformed wing virus was “antiviral activity”.

In the case of `COc1cc(/C=C/C(=O)O)ccc1O` [ferulic acid, Ferulic acid], in the assay with deformed wing virus (low levels, 0.1 mM), the “deformed wing virus levels” value was “dose response in viral loads”. The “antiviral activity in live bee trials” value in the assay with deformed wing virus is “antiviral activity”.

Regarding `Cc1ccc(C(C)C)c(O)c1` [thymol, 2-isopropyl-5-methylphenol], the “high-intensity infections (viral levels above threshold)” value in the assay with deformed wing virus (FIG. 5, across 3000 honey bee trials) is on record as “quantitative reduction of high-intensity infections”. In addition, the “antiviral activity in live bee trials” value in the assay on deformed wing virus is given as “antiviral activity”. Moreover, the “Average Fluorescence, Average Counts” value in assay [1] (high dose) worked out at 63.290; in assay [1] (low dose), 67.092; in assay [1] (medium dose), 72.992. Besides, the “viral load of DWV-infected bees compared with DWV control” value in assay [1] is reported as “lower viral load”.
